Test results: the METLIN SMRT retention time set (Domingo-Almenara et al. 2019)

Assay: gradient 5% acetonitrile 3 min, to 50% in 2 min, to 85% in 15 min, held 3 min, 100 µL/min
Settings: column: Zorbax Extend-C18 2.1 x 50 mm; eluents: water / acetonitrile, 0.1% formic acid
Method in brief: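 Values are retention times taken from adduct peaks that software picked and an analyst inspected. The pure standards were run as mixtures of ~100 molecules on HPLC linked to a quadrupole time-of-flight mass spectrometer, in positive and negative ionization mode. A Zorbax Extend-C18 column (2.1 × 50 mm, 1.8 μm) was used at 100 μL/min with water and acetonitrile, each including 0.1% formic acid.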

Structure (SMILES)	RP-LC retention time [s]
O=C(Nc1ccc(Cl)cc1Cl)c1ccc(Br)cc1F	1360
CCc1nn2c(N3CCN(c4cccc(C)n4)CC3)cc(C)nc2c1-c1ccccc1	1100
Nc1nnc(SCc2nnc(-c3ccc4c(c3)OCO4)o2)s1	630
CCCCN(CCCNC(=O)c1cc(C)nn1-c1ccccc1)Cc1ccccc1	656
CN(C)CC(O)Cn1c2ccc(Br)cc2c2cc(Br)ccc21 (centres undefined)	782
CCOc1cccc(-c2noc(Cn3nc(-c4ccc(OC)cc4)ccc3=O)n2)c1	1030
CCCN(C)C(=O)COc1ccc(NC(=O)C2CC2)cn1	666
CC(C)CC(=O)N1CCc2c([nH]c3ccccc23)C12C(=O)N(C)c1ccccc12 (centres undefined)	951
CC(NC(=O)c1cc(-c2ccccc2)cn1C)c1cccnc1 (centres undefined)	662
COc1ccccc1-c1csc(-c2nnn(-c3ccc(Cl)cc3)c2N)n1	1190
CC(=O)N1CCN(c2nc3c(s2)CC(C(=O)NCc2cc(C)ccc2C)CC3)CC1 (centres undefined)	576
COc1cc(CN2C[C@@H]3C(=O)N(CCCN4CCCC4=O)C(=O)[C@@H]3C2)ccc1OC(C)C	610
CCc1nn(CC)c(=O)c2cc(S(=O)(=O)N3CCC(Cc4ccccc4)CC3)cn12	1140
CC(C)n1c(N2CCN(C(=O)Cc3cccs3)CC2)cc(=O)n(C(C)C)c1=O	829
CCc1cccc(NS(=O)(=O)c2ccc(-c3c(C)noc3C)cc2)c1	985
COc1ccc(OC)c(-c2cc(C(=O)NCC#CCN3CCc4ccccc4C3)[nH]n2)c1	592
COc1ccc(NS(=O)(=O)c2cc3c(s2)CCN(C(=O)C2CCC2)C3)cc1Cl	893
O=C(Cc1ccc(Cl)cc1)NCC(=O)Nc1nc2ccccc2[nH]1	660
COC(=O)c1cccc(-c2nc(C3CC(=O)N(c4ccc(Cl)cc4)C3)no2)c1 (centres undefined)	1030
CCc1nnc(NC(=O)CSc2nccn2-c2ccc(F)cc2)s1	653
CCOc1ccc(-c2cc(=O)n(CC(=O)NCCn3ncccc3=O)cn2)cc1	614
COc1ccccc1N1CCN(S(=O)(=O)c2cc(-c3cc(C(F)(F)F)on3)sc2C)CC1	1300
COCC1CN(Cc2cc3ccc(C)cc3[nH]c2=O)CCC1(F)F (centres undefined)	629

Structure (SMILES)	RP-LC retention time [s]
N#Cc1cccc(C(=O)N2CCCn3nc(-c4ccc(Cl)cc4)cc3C2)c1	933
O=C(C1CC1)N1CCc2sc(S(=O)(=O)NCc3ccccc3Cl)cc2C1	855
O=C(Nc1cccc(N2CCCS2(=O)=O)c1)Nc1cccs1	696
O=C(NCc1cccc(C(F)(F)F)c1)C1CCN(c2ccc(SCc3ccccc3)nn2)CC1	871
CN(C)C(=O)c1cn(C2CN(C(=O)Nc3ccccc3F)C2)nn1	629
CCN(CC)S(=O)(=O)c1ccc2c(c1)nnn2CCC(=O)N1CCN(c2ccccn2)CC1	616
CCCn1ccc2sc(C)c(C(=O)NCc3ccc(F)cc3F)c2c1=O	925
CCOc1cccc(C2c3[nH]c4ccccc4c3CCN2C(=O)COC)c1 (centres undefined)	983
O=C(CSc1cc(-c2nc(-c3ccccc3)no2)ccn1)N1CCCC1	941
Cc1ccc(CCNC(=O)C2CCN(C(=O)c3sccc3-n3cccc3)CC2)cc1	882
NC(=O)c1cc(=O)[nH]c2ccccc12	546
COc1ccc(Cl)cc1NS(=O)(=O)c1cc2n(c1)CCN(CC(C)C)C2=O	868
Cc1ccc(CNC(=O)C2(C)CCCN(C(=O)Nc3ccc(C)c(Cl)c3)C2)cc1 (centres undefined)	1110
COc1ccccc1NC(=O)c1cc(C(C)C)n2nccc2n1	1180
O=C(CCc1ccccc1)Nc1ccc2c(c1)CCCN2C(=O)c1ccco1	861
CCOc1ccc(S(=O)(=O)Nc2ccc3nc(N4CCN(C)CC4)cc(C(=O)O)c3c2)cc1	596
Cn1cnc2c(C(=O)N3CCN(c4ccccn4)CC3)nn(-c3ccccc3)c2c1=O	599
Cc1ccn2cc(-c3ccc(NC(=O)Nc4ccc(F)cc4)cc3)nc2n1	654
O=C(Nc1ccc(F)cc1F)C1CCCN(c2ncnc3c2nc2n3CCCCC2)C1 (centres undefined)	824
COc1cccc2c1C(=O)c1c(O)c3c(c(O)c1C2=O)C[C@@](O)(C(C)=O)C[C@@H]3OC1CC(N(C)C)C(O)C(C)O1 (some centres undefined)	666
Cc1cccc(NS(=O)(=O)c2cc(-c3[nH]ncc3C(=O)N(C)C)oc2C)c1C	712
CCc1ccc(N2C(=O)CN(S(C)(=O)=O)CC2(C)C(=O)NCc2ccccc2)cc1 (centres undefined)	809
COc1ccc(Cl)cc1S(=O)(=O)N1CCCN(c2ccc(=O)n(-c3ccccc3)n2)CC1	906

Structure (SMILES)	RP-LC retention time [s]
COc1ccc(-c2noc(C3CCCN3C(=O)C3CC3)n2)cc1 (centres undefined)	816
CCn1ccc2cc(S(=O)(=O)N3CCC(C(=O)N4CCN(c5ccccn5)CC4)CC3)ccc21	674
CC(C(=O)N1CCN(C2CCCCC2)CC1)C1CCN(S(=O)(=O)c2cccs2)CC1 (centres undefined)	664
O=C(NCc1ccccc1F)c1ccc2c(c1)CN(CC1=Cc3ccccc3OC1)CCO2	755
CCCNc1nc(-c2cccc(Cl)c2)cs1	1020
COc1ccccc1Nc1nc(-c2ccc(Br)cc2)cs1	1340
O=C1CCC2(C(=O)NCC3CC3)CCCC=C2N1c1ccccc1 (centres undefined)	726
COc1cccc(Oc2nccn3c(=O)n(CC(=O)Nc4ccccc4C(F)(F)F)nc23)c1	850
CCc1ccc(NC(=O)N2CCN(Cc3nc4ccccc4o3)CC2)cc1	738
C[C@@]1(O)CCN(Cc2cccc(C#N)c2)C[C@H]1N1CCCC1	541
COc1ccc(OC)c(CNC(=O)C2CCN(c3cncnc3N3CCCCC3)CC2)c1	688
Cn1cc(CCNC(=O)Cc2ccccc2Cl)c2cccnc21	700
Cc1ccc2c(Nc3ccc4c(c3)OCCO4)c(C(=O)N3CCCC3)cnc2n1	592
Cc1ccc(NC(=O)Cn2c(N3CCOCC3)nc(C)cc2=O)c(C)c1	658
CCN1C(=O)NC(c2ccccc2C(F)(F)F)C2=C1CN(CCC(=O)NCC(C)C)C2=O (centres undefined)	661
Cc1cccc(N2C(=O)CN(CCc3ccc(F)cc3)[C@H]3CS(=O)(=O)C[C@H]32)c1	839
Cc1oc(-c2ccccc2)nc1Cn1ccn2nc(-c3ccc4c(c3)OCO4)cc2c1=O	1060
Cc1cc(C(=O)N2CCCC2c2nncn2C(C)C)n[nH]1 (centres undefined)	579
COc1ccc(CNC(=O)C2CCN(S(=O)(=O)c3cc(-c4noc(C)n4)cs3)CC2)cc1	831
Cc1cc(N2CCN(C(=O)CCc3ccccc3)CC2)nc2nnc(C)n12	616
Cc1nnc(-c2cc(NC(=O)c3cc(F)ccc3Cl)c(C)s2)o1	955
O=C(CSc1nnc2c3cc(-c4ccc(F)cc4)nn3ccn12)Nc1ccccc1F	881
Cc1ccc(NS(=O)(=O)c2cc3n(c2)CCN(C(C)C)C3=O)cc1	777

Structure (SMILES)	RP-LC retention time [s]
CCc1sc(NC(=O)CCS(=O)(=O)Cc2ccccc2)nc1-c1ccccc1	948
COc1cc(NC(=O)Cn2cnc3c(sc4nc(-c5ccccc5)ccc43)c2=O)cc(OC)c1	996
CC(C)c1cc(-c2ccc(F)c3ccccc23)nc(N)n1	882
C=CCNC(=O)C1CCCN(c2ncnc3c2oc2ccccc23)C1 (centres undefined)	674
CCn1cc(-c2nc(C)c(C(=O)NCc3ccncc3)s2)c2cccnc21	616
O=C(Cn1cccc(-c2nc(-c3ccc(Br)cc3)no2)c1=O)Nc1ccc2c(c1)OCO2	935
CN(C)S(=O)(=O)c1cccc(-c2nnc(-c3ccccc3Br)o2)c1	947
Cc1csc(-c2cc(S(=O)(=O)NC3CCCC3)c(C)n2C)n1	970
Cc1ccccc1NC(=O)C(=O)c1ccc[nH]1	862
CCn1c(=O)c(C(=O)NCc2cccnc2)nc2cccnc21	555
O=C(NCC1(c2cccs2)CCOCC1)c1nc2ccccc2s1	596
Cc1ccn2cc(-c3ccc(NC(=O)c4ccc(Cl)cc4)cc3)nc2n1	676
COc1ccccc1NS(=O)(=O)c1cc(N)ccc1N1CCCCC1	744
CC1CN2C=NC(N3CCN(S(=O)(=O)Cc4cccc(Cl)c4)CC3)=CC2=N1 (centres undefined)	627
CCCS(=O)(=O)N1CC(=O)N(c2cccc(Cl)c2C)C(C)(C(=O)NC2CCCC2)C1 (centres undefined)	946
COc1ccc(-c2nnc(-c3cccnc3NCc3cccc(OC)c3OC)o2)cc1	1060
O=C(CCC[C@@H]1[C@H]2CCCN3CCC[C@@H](CN1C(=O)c1ccccc1)[C@@H]23)Nc1ccc2c(c1)OCCO2	647
CCNC(=O)c1cn(-c2ccc(NC(=O)C3CC3)cn2)cn1	615
CCc1cccc(C)c1NC(=O)CN1C(=O)NC2(CCCCC2)C1=O	804
CC(C)CC(=O)Nc1ccc(N2CCOCC2)cc1C(=O)O	713
